In patent publication US20260085034A1, “N-(BENZHYDRYL)CYCLOALKYLCARBOXAMIDE DERIVATIVES AS INHIBITORS OF GLYCOGEN SYNTHASE 1 (GYS1) AND METHODS OF USE THEREOF” (Maze Therapeutics, Inc., priority 2022, published 2026):

Test system: glycogen synthesis in HeLa cells (hGYS1)
Test: GYS1 cell based assay (glycogen digestion, Glucose-glo)
Conditions: Homo sapiens, 24 h incubation, 20 mM glucose, geometric mean of at least 2 runs, read-out: Cellular IC50
Source text: The GYS1 cell based assay is a bioluminescent assay that quantifies the glucose resulting from glycogen digestion; the quantified glucose is an indirect measure of GYS1 glycogen synthesis. Newly synthesized glycogen is digested using Glucoamylase; the resulting glucose is quantified by using the Glucose-glo assay kit from Promega. Glucose-glo works by coupling glucose oxidation and NADH production with a bioluminescent system that is activated with NADH. Glucose is oxidized by Glucose dehydrogenase and the reaction reduces NAD+ to NADH; NADH activates Reductase which reduces a pro-luciferin Reductase Substrate to luciferin. Luciferin is detected in a luciferase reaction using Ultra-Glo rLuciferase and ATP, and the luminesce produced is proportional to the glucose in the sample. The luminescence is measured as a single point read in a plate reader.
Compounds that inhibit the hGYS1 enzyme and, subsequently, the glycogen synthesis in cells, were tested using assay ready plates (white, clear bottom 384 well plates) in a final DMSO reaction volume of 1% DMSO. Compounds in the assay ready plates were mixed with media with no additives, except for 20 mM glucose prior to cell addition. HeLa cells were starved in media with no additives, except for 1× Glutamax for 24 h. Starved HeLa cells were plated, in a 1:1 ratio to the media in the assay ready plate and incubated for 24 h at 37° C. and 5% CO2. Cells were washed in 1×PBS buffer and lysed in lysis buffer containing 50% 1×PBS and 25% 0.3 N HCl of the final volume in the well or reaction volume; cells were incubated with lysis buffer for 10 minutes and quenched with the remaining 25% of the reaction volume that consisted of 450 mM Tris pH 8.0. Lysates were mixed in a 1:1 ratio with Glucoamylase in 100 mM Sodium Acetate buffer, pH 5.3; the mixture was incubated for 1 h at 37° C. The digested lysate was mixed in a 1:1 ratio with Glucose-glo detection mixture as per vendor recommendations (Luciferase detection buffer, Reductase, Reductase substrate, Glucose dehydrogenase, and NAD) in read-out plates (solid white 384-well plates) and incubated for 1 h at RT. The plates were read using a plate reader with luminescence capabilities. Each compound concentration Relative Luminescence Unit (RLU) was averaged and normalized to the average RLU of the positive and negative controls to obtain a percentage inhibition. The normalized data vs. concentration was plotted; to determine the half-maximal concentration (IC50), the Levenberg-Marquardt algorithm was used to fit a Hill equation to the dose response data.
The results are shown in Table 4 below, which reports the IC50 of each compound. Unless otherwise specified, IC50 values are reported as the geometric mean of at least 2 assay runs on separate days. As shown in the table below, the compounds of the present invention are potent inhibitors of human GYS1. […] Each run represents the average of a technical replicate, where each compound was assayed twice in the same plate.

IC50: 3.28 µM
SMILES: CC(C)c1ccc([C@@H](NC(=O)[C@H]2C[C@@H]2F)c2ccn[nH]2)cc1F (single isomer, unassigned) [compound 11]
